Where “and” joins values, the source holds several entries; their conditions need not be identical. Identical values can stand only once.
Columns and labels:
[1] = tested on: RPE1 cells; assay: In vitro safety/cell viability MTT assay on normal RPE1 cells; type: cell-based, human; conditions: RPE1, MTT, in words
[2] = as above; type: cell-based, human; conditions: human, RPE1 cells (noncancerous), normal RPE1 cells, MTT
[3] = tested on: urokinase Plasminogen Activator (uPA); assay: uPA level in HepG2 cell lysate (ELISA); type: cell-based, human; conditions: HepG2 treated at IC50, 48 h
Experimental: (§1) As previously described, with little modification, HepG2 cells were cultured in T25 flask until they reached 30% confluency. […] After treatment, cells were washed by PBS, trypsinized and centrifuged at 10,000 rpm. The formed pellets were washed twice with PBS and lysed in 1 mL ice-cold radio immunoprecipitation assay (RIPA) lysis buffer (50 mM Tris-HCl, pH 8.0, 150 mM NaCl, 1% Triton X-100, 0.5% sodium deoxycholate, 0.1% sodium dodecyl sulfate) and kept on ice for 20 min. Then, the mixture was centrifuged at 15,000 rpm for 15 min to remove any cell debris. The cell lysate was aliquoted and stored at −80 °C for determination of protein using Pierce BCA Protein Assay Kit (Thermo Fisher Scientific, Waltham/Boston, USA) according to manufacturer’s recommendations and determination of other biochemical parameters including EGFR, urokinase Plasminogen Activator (uPA), B-Cell Lymphoma-2 (Bcl-2), heparanase, and oxidative stress markers (glutathione; GSH and malonaldehyde; MDA).
(§2) Levels of EGFR [37] and heparanase in cell lysate were investigated using commercially available enzyme-linked immunosorbent assay (ELISA) kits supplied by Abcam (Cat. No. ab269558, ab256401, respectively). Levels of uPA [39] were measured using ELISA kit supplied by Creative Diagnostics (New York, USA, Cat. No. DEIA1630). Bcl-2 levels were determined using ELISA kit supplied by Zymed Laboratories, Carlsbad, California (Cat. No. 99-0042). Briefly, standards and samples were added to corresponding 96-well plate coated with suitable antibody. After the washing step, biotinylated anti-human antibody was added to each well. After washing away unbound biotinylated antibody, horseradish peroxidase (HRP)-conjugated streptavidin was pipetted into each well. A peroxidase substrate solution was added to all wells, after washing, and the color developed was proportionate to the amount of EGFR bound. Finally, the stop solution was added and the color intensity was measured at 450 nm.

[4] = tested on: heparanase; assay: Heparanase level in HepG2 cell lysate (ELISA); type: cell-based, human; conditions: HepG2 treated at IC50, 48 h
Experimental: as §1, §2

[5] = tested on: B-Cell Lymphoma-2 (Bcl-2); assay: Bcl-2 level in HepG2 cell lysate (ELISA); type: cell-based, human; conditions: HepG2 treated at IC50, 48 h
Experimental: as §1, §2

[6] = tested on: malonaldehyde (MDA); assay: MDA level in HepG2 cell lysate (TBA method); type: cell-based, human; conditions: HepG2 treated at IC50, 48 h
Experimental: as §1
Levels of MDA, the marker of lipid peroxidation, were measured by thiobarbituric acid (TBA) method. TBA reacts with MDA in an acidic medium at temperature of 95 °C for 30 min to form colored thiobarbituric acid reactive (TBAR) product, the absorbance of which was measured at 534 nm. The MDA kit was purchased from Biodiagnostics, Cairo, Egypt.

[7] = tested on: HepG2 cells; assay: Cell cycle analysis by flow cytometry (PI staining); type: cell-based, human; conditions: for %Cell Cycle Arrest/Phase %G0-G1 / %Cell Cycle Arrest/Phase %G2-M / %Cell Cycle Arrest/Phase %S / %Cell Cycle Arrest/Phase %pre-G1: HepG2, 5 µM, 48 h; for G2-M arrest, fold higher compared to the negative control: HepG2, negative control 7.1%
Experimental: In 6-well plate, HepG2 (1 × 10^5 cells per well) were treated with either (0.1% DMSO) vehicle or 5 μM of 3a, 4b, and 4c compounds. After 48 h incubation, cells were harvested and fixed for 12 h using ice-cold 70% ethanol at 4 °C. Ethanol was removed and cells were washed by PBS and incubated for 30 min at 37 °C in 0.5 mL of PBS containing 1 mg/mL RNase. Then, cells were stained for 30 min with PI in the dark and the DNA content was determined using flow cytometer.

[8] = tested on: mice; assay: In vivo acute (14-day) oral toxicity study; conditions: for S.ALT / S.AST / S.Creatinine / S.D.Bilirubin / S.T.Bilirubin / S.Urea: 14 days after single dose, doxorubicin 15 mg/kg I.P; for S.ALT / S.AST / S.Creatinine / S.D.Bilirubin / S.T.Bilirubin / S.Urea / Histopathology of liver and kidney tissues (H and E) versus control groups / Kidney histology (H and E photomicrographs) / Liver histology (H and E photomicrographs): compounds 250 mg/kg oral; for Histopathology of liver and kidney tissues (H and E) versus control groups / Kidney histology (H and E photomicrographs) / Liver histology (H and E photomicrographs) / Physical or abnormal changes (body weight, skin, fur, eyes, behavior, overall appearance): 14 days; for Histopathology of liver and kidney tissues (H and E) versus control groups / Kidney histology (H and E photomicrographs) / Liver histology (H and E photomicrographs): Dox 15 mg/kg i.p.; for Survival over the treatment period (14 days) / Physical or abnormal changes (body weight, skin, fur, eyes, behavior, overall appearance): single acute oral dose of 250 mg/kg
Source text: GPower 3.0.10 software was used to estimate the sample size needed for the experiment and the number of mice per group but, according to the Organization for Economic Cooperation and Development (OECD) Test Guidelines No. 407 (OECD, 2008 and updated 2017) and under the International Academy of Science’s Guide for the Care and Use of Laboratory Animals, as well as the ARRIVE guidelines, to use the least number of mice per group for the acute single dose oral toxicity test.
Animals were divided randomly into nine groups (5 animals per group). Before the experiment, the body weight (BW) of all mice was recorded. All mice were made to fast for 24 h and treated once (day zero) then carefully monitored for 14 days.
Normal control group: mice received saline orally once;
Negative control group: mice received vehicle (DMSO) orally once;
Positive control group: mice were injected with Dox (15 mg/kg BW, i.p.) once.
Isatin-sulfonamide-derivative-compound-treated groups (2a, 3a, 3d and 4b, 4c and 4d) of mice received 250 mg/kg BW of each orally once.
The animals’ BWs were recorded at the end of the 14 days of observation. Blood samples were collected from the retro-orbital plexus and allowed to clot. Sera were prepared by centrifugation at 4000 rpm for 15 min and then kept frozen at − 80 °C for liver and kidney function tests (LFTs and KFTs). Thereafter, mice were deprived of food overnight, euthanized, and sacrificed by cervical dislocation. Liver and kidney tissues were collected, washed with ice-cold saline, and weighed. Excised weighed livers and kidneys were fixed in a suitable buffer for histological examination.
Liver and kidney tissues were fixed in 10% neutral buffered formaldehyde overnight and then embedded in paraffin, […] in serial grades of alcohols, cleared in xylene, and were subjected to […], where 4 μm thick tissue sections were cut by rotatory microtome. Tissue sections were stained with hematoxylin and eosin (H and E) for histological examination using full HD light microscopic imaging system (Leica Microsystems GmbH, Wetzlar, Germany). Standard procedures for sample fixation and staining were done as previously described.

For `Cc1ccc(C(=O)CC2(O)C(=O)Nc3ccc(S(=O)(=O)N4CCCCC4)cc32)cc1` (stereo not shown) [Compound 3a, 3-hydroxy-3-(2-oxo-2-(p-tolyl)ethyl)-5-(piperidin-1-ylsulfonyl)indolin-2-one], the “Effect towards the noncancerous cell line (RPE1)” value [1] was “non-cytotoxic effect”, the CC50 at 48 h [2] was over 100 µM and the viability at 48 h, 100 p.p.m (μg/mL) [2] was 74%. For the same compound, the “uPA level in cell lysate” value [3] was 1258 ± 15 nmol/mg protein and 1258 ± 15 ^a* nmol/mg protein, the “Heparanase level in cell lysate” value [4] was 1262 ± 35 pmol/mg protein and 1262 ± 35 ^a*^,b* pmol/mg protein and the “Bcl-2 level in cell lysate” value [5] was 4.2 ± 0.1 nmol/mg protein and 4.2 ± 0.10 ^a*^,b* nmol/mg protein. For the same compound, the “MDA level in cell lysate” value [6] was 2.0 ± 0.5 µmol/mg protein and 2.0 ± 0.5 ^a*^,b* µmol/mg protein, the “%Cell Cycle Arrest/Phase %G0-G1” value [7] was 31.57% and the “%Cell Cycle Arrest/Phase %G2-M” value [7] was 44.85%. For the same compound, the “%Cell Cycle Arrest/Phase %S” value [7] was 23.58%, the “%Cell Cycle Arrest/Phase %pre-G1” value [7] was 46.29% and the “G2-M arrest, fold higher compared to the negative control” value [7] was 6.32 fold. The S.ALT [8] was 27.05 ± 0.81 ^^ U/L, the S.AST [8] was 36.78 ± 0.33 ^^ U/L and the S.Creatinine [8] was 0.82 ± 0.03 ^^ mg/dL. For the same compound, the S.D.Bilirubin [8] was 0.16 ± 0.002 ^^ mg/dL, the S.T.Bilirubin [8] was 0.65 ± 0.026 ^^ mg/dL and the S.Urea [8] was 51.25 ± 0.36 ^^ mg/dL. For the same compound, the “Histopathology of liver and kidney tissues (H and E) versus control groups” value [8] was “no differences in the hepatic or renal tissue structures”, the “Kidney histology (H and E photomicrographs)” value [8] was “intact well-organized histological features of renal parenchyma” and the “Liver histology (H and E photomicrographs)” value [8] was “no inflammatory cell infiltrates”. The “Survival over the treatment period (14 days)” value [8] was “survived” and the “Physical or abnormal changes (body weight, skin, fur, eyes, behavior, overall appearance)” value [8] was “No physical or abnormal changes were observed”.
For `CC(=O)Nc1cccc(C(=O)C=C2C(=O)Nc3ccc(S(=O)(=O)N4CCCCC4)cc32)c1` [Compound 4c, N-(3-(2-(2-oxo-5-(piperidin-1-ylsulfonyl)indolin-3-ylidene)acetyl)phenyl)acetamide], the “Effect towards the noncancerous cell line (RPE1)” value [1] was “non-cytotoxic effect”, the CC50 at 48 h [2] was over 100 µM and the viability at 48 h, 100 p.p.m (μg/mL) [2] was 80.7%. The “uPA level in cell lysate” value [3] was 1729 ± 38 nmol/mg protein and 1729 ± 38 ^a*^,b* nmol/mg protein, the “Heparanase level in cell lysate” value [4] was 1449 ± 12.5 pmol/mg protein and 1449 ± 12.5 ^a*^,b* pmol/mg protein and the “Bcl-2 level in cell lysate” value [5] was 3.6 ± 0.11 nmol/mg protein and 3.6 ± 0.11 ^a*^,b* nmol/mg protein. For the same compound, the “MDA level in cell lysate” value [6] was 14.5 ± 1.4 µmol/mg protein, the “%Cell Cycle Arrest/Phase %G0-G1” value [7] was 36.44% and the “%Cell Cycle Arrest/Phase %G2-M” value [7] was 37.62%. The “%Cell Cycle Arrest/Phase %S” value [7] was 25.94%, the “%Cell Cycle Arrest/Phase %pre-G1” value [7] was 32.02% and the “G2-M arrest, fold higher compared to the negative control” value [7] was 5.30 fold. For the same compound, the S.ALT [8] was 28.41 ± 0.28 ^^ U/L, the S.AST [8] was 37.35 ± 1.47 ^^ U/L and the S.Creatinine [8] was 0.79 ± 0.04 ^^ mg/dL. For the same compound, the S.D.Bilirubin [8] was 0.16 ± 0.007 ^^ mg/dL, the S.T.Bilirubin [8] was 0.73 ± 0.014 ^^ mg/dL and the S.Urea [8] was 55.76 ± 5.64 ^^ mg/dL. For the same compound, the “Histopathology of liver and kidney tissues (H and E) versus control groups” value [8] was “no differences in the hepatic or renal tissue structures”, the “Kidney histology (H and E photomicrographs)” value [8] was “almost intact well-organized morphological features” and the “Liver histology (H and E photomicrographs)” value [8] was “almost intact histological features of hepatic parenchyma”. The “Survival over the treatment period (14 days)” value [8] was “survived” and the “Physical or abnormal changes (body weight, skin, fur, eyes, behavior, overall appearance)” value [8] was “No physical or abnormal changes were observed”.

Source: article PMC8945686, “Anticancer Effects with Molecular Docking Confirmation of Newly Synthesized Isatin Sulfonamide Molecular Hybrid Derivatives against Hepatic Cancer Cell Lines” (Biomedicines, 2022)
